In US12002595B2, “Separation of metal ions by liquid-liquid extraction” (priority 2016, dated 2024):

Key:
[1] = Extraction by HDEHP with 1 mM 343HOPO in 0.1 M HNO3 and 1.9 M NaNO3
Protocol: Aqueous phase: 1 mM 343HOPO in 0.1 M HNO3 and 1.9 M NaNO3. Organic phase: HDEHP in kerosene.
A log scale is used for clarity. See FIGS. 58A and 58B for results as a function of the phase ratio.
For Example 20—Example 24, pH measurements were performed with a glass electrode (Metrohm-Micro Combi-response to [H+]) calibrated at 25.0° C. using three NIST standards. Extraction samples were analyzed by liquid scintillation counting (LSC). The distribution coefficient, D(M), of a given metal, M, is defined in Eq. 1, where [M]organic and [M]aqueous are the respective total concentrations of M in the organic and aqueous layers, after extraction. Both concentrations are proportional to the volumetric activity (in Bq/L) determined by LSC. The separation factor, SFM1/M2, between two metals, M1 and M2, and extraction yield were calculated according to Eq. 2 and Eq. 3, respectively.
In a typical experiment, the solvent (extractant diluted in kerosene) was pre-conditioned by shaking one volume of solvent with three volumes of aqueous phase (typically HNO3) at room temperature for 1 h, thrice. For radioisotope extractions, at least 400 μL aqueous phase (typically containing HNO3, a chelator and a radioisotope) and solvent were placed in air-tight screw-capped plastic tubes, triply-contained, and shaken in a thermoshaker at 300 rpm, 25° C., for at least 30 min. Samples were then centrifuged for 5 min at 3000 rpm and phases separated before analysis. LSC analyses were performed on a Packard Tri-Carb B4430 instrument (Perkin Elmer) after mixing sample aliquots or sample dilution aliquots (10 to 200 μL) with 10 mL of scintillation cocktail (UltimaGold LLT). Samples were counted for at least 6 min and results were background subtracted. The analytical samples contained between 0 and 800,000 CPM. Mixtures of ^249Bk and ^249Cf were analyzed using α/β discrimination and energy windows were set to 0-50 keV for low-energy β particles of ^249Bk and 50-1000 keV for α particles of ^249Cf. ^243Am and ^225Ac samples were counted at secular equilibrium.

[2] = Stability constant (log β) of ligand-metal complexes; assay type: binding; conditions: Log β110 (Th^4+) versus Log β110 (Eu^3+)
Protocol: Solution Thermodynamics. All titrant solutions were degassed by boiling for 1 h while being purged under Ar. Carbonate-free 0.1 M KOH was prepared from concentrate (J. T Baker Dilut-It) and was standardized by titrating against 0.1 M potassium hydrogen phthalate (99.95%, Sigma Aldrich). Solutions of 0.1 M HCl were similarly prepared and were standardized by titrating against TRIS (99.9%, J. T. Baker). The glass electrode (Metrohm—Micro Combi—response to [H+]) used for the pH measurements was calibrated at 25.0° C. and at an ionic strength of 0.1 M (KCl) before each potentiometric or spectrophotometric titration. The calibration data were analyzed using the program GLEE (Gans & O'Sullivan, Talanta, 2000, 51 (1): 33-37) to refine for the E° and slope. All thermodynamic measurements were conducted at 25.0° C., in 0.1 M KCl supporting electrolyte under positive Ar gas pressure. The automated titration system was controlled by an 867 pH Module (Metrohm). Two-milliliter Dosino 800 burets (Metrohm) dosed the titrant (0.1 M KOH or 0.1 M HCl) into the thermostated titration vessel (5-90 mL). UV-visible spectra were acquired with an Ocean Optics USB4000-UV-vis spectrometer equipped with a TP-300 dip probe (Ocean Optics; path length of 10 mm), fiber optics and a DH-2000 light source (deuterium and halogen lamps). The fully automated titration system and the UV-vis spectrophotometer were coordinated by LBNL titration system, a computer program developed in house.
Incremental Spectrophotometric Titrations. This method was used to determine the protonation constants of 3,4,3-LI(CAM) as well as the stability constants of its complexes formed with Eu(III), Zr(IV) and ^232Th(IV). The experimental titration setup is similar to previously described systems (Sturzbecher-Hoehne, et al., Radiochimica Acta., 2013, 101 (6): 359-366). For the 3,4,3-LI(CAM) protonation (and Eu(III)-3,4,3-LI(CAM) complexes), titrations were performed with an initial concentration of 50 μM of 3,4,3-LI(CAM) (and 50 μM of Eu(III)) resulting in absorbance values included between 0 and 1.0 throughout the titration. Typically, 9 mL of a sample containing 3,4,3-LI(CAM) (and Eu(III)) and the supporting electrolyte (KCl/HCl) were incrementally perturbed by addition of 0.025 mL of carbonate-free 0.1 M KOH followed by a time delay of 80 s. Buffering of the solution was ensured by the addition of 10 mM of HEPES, 10 mM of CHES and 10 mM of MES. Between 130 and 250 data points were collected per titration, each data point including a pH measurement and a UV-Vis spectrum (250-450 nm) over the pH range 1.5 to 12.0. All spectra were corrected for dilution before data fitting. The entire procedure (electrode calibrate, titration and data treatment) was performed independently five times for the protonation constants and four times for the Eu(III)-3,4,3-LI(CAM) complexes. For the Zr(IV) and Th(IV) complexes, titrations were performed similarly but in the presence of DTPA to avoid the formation of metal hydroxides at low pH, before the uptake by 3,4,3-LI(CAM). For each metal, three titrations were performed independently in the presence of 1.1 to 40 equivalents of DTPA.
Data Treatment. […] All metal and chelator concentrations were held at estimated values determined from the volume of standardized stock solutions. All species formed with 3,4,3-LI(CAM) were considered to have significant absorbance to be observed in the UV-vis spectra and were therefore included in the refinement process. […]

SMILES	SFBk/Lu ([1]; single step, room temperature, HDEHP-HNO3-343HOPO system)	Δ log β [2]	separation between Bk and Cf ([1]; chelator in place of 343HOPO, acidic conditions)
O=C(NCCCN(CCCCN(CCCNC(=O)c1cccc(=O)n1O)C(=O)c1cccc(=O)n1O)C(=O)c1cccc(=O)n1O)c1cccc(=O)n1O [3,4,3-LI(1,2-HOPO)]	≤ 320,000	19.9	
O=C(O)CN(CCN(CC(=O)O)CC(=O)O)CCN(CC(=O)O)CC(=O)O [DTPA, Diethylenetriaminepentaacetic acid, reference compound]		6.3	no separation at all
